Patent US11446378B2, “Inhibitors of ephrin B1 for tumor treatment” (SANFORD HEALTH, priority 2017, dated 2022)

System: PC12 cells
Assay: PC12 neurite outgrowth assay (β-III tubulin quantification by CX7)
Format: cell-based, rat
Description: To test our hypothesis that tumor released exosomes induce neo-neurogenesis, we utilized PC12 cells, a rat pheochromocytoma cell line, as an in vitro screen. When stimulated with NGF (100 ng/ml), PC12 cells differentiate into neuron-like cells and extend neurites. We collected 10 ml of blood along with matched tumor tissue from three head and neck cancer patients (patient samples Pt1, Pt2, Pt3). We similarly collected blood from 3 healthy volunteers (Nl1, Nl2, Nl3) as well as adult tonsil tissue (TL). The tonsil was chosen as control tissue since the majority of HPV+ OPSCCs arise in the tonsil. Exosomes were purified, quantified by BCA protein assay and further validated by western blot analysis for the exosome markers CD9 and CD81 (FIG. 1E). To test whether they harbor neurite outgrowth activity, PC12 cells were treated with 3 μg exosomes, fixed 48 hours later and immunostained for β-III tubulin. Neurite outgrowth was quantified using the CellInSight™ CX7 High Content Analysis Platform and the number of neurites compared. The exosome yield from patient Pt1 was low allowing for analysis of only one replicate while quantities from Pt2 and Pt3 were sufficient for technical replicates. […]
The CellInSight CX7 High Content Analysis Platform performs automated cellular imaging for quantitative microscopy which was utilized to quantify neurite outgrowth. […]

## NGF: recombinant nerve growth factor, positive control for PC12 neurite outgrowth
PC12 cells fixed 48 hours after treatment, 3 μg exosomes or NGF 100 ng/ml
  neurite outgrowth (number of β-III tubulin positive neurites): robustly
PC12 cells, 24 hour stimulation, recombinant NGF 100 ng/ml set at 100%
  neurite outgrowth (total number of beta-III tubulin positive neurites per well): robust neurite outgrowth
